Entries after “also recorded” stand apart in the source; their conditions may differ. Where a SMILES comes first, the peptide text is derived from it. Bridges are numbered along the chain shown (N, C = ends).
Assays:
[1] = tested on: Escherichia coli ML35; assay: Bactericidal assay (LD99.9), E. coli; type: cell-based; details: 10 mM phosphate buffer pH 7.0 with 1% TSB, 2 h, 37°C
Method: (§1) The peptides were tested for microbicidal activities against Bacillus subtilis ATCC6633, Escherichia coli ML35, and Staphylococcus aureus 42D as previously described. Suspensions of logarithmically growing test bacteria were incubated on a microtiter plate at a concentration of 10^5 colony-forming units/mL with various peptide dilutions. The medium was 100 µL of 10 mM phosphate buffer pH 7.0 supplemented with 1% (v/v) of tryptic soy broth (TSB). For later assays, human male serum was also added to a final concentration of 25%. 10 µL aliquots were collected at time 0 h and after 2 h of incubation on a rotary shaker (300 rpm) at 37°C. These were plated on blood agar plates and incubated overnight at 37°C. The Lethal Dose concentration (LD99.9) was determined, corresponding to the concentration killing >99.9% of the inoculum at 2 h. These experiments were performed in duplicate.
(§2) For the testing of the peptides' activities in different conditions, e.g. with serum, we use the same cut-off for activity as defined for Minimum Bactericidal Concentration (MBC), i.e. a 1000-fold reduction of the inoculum. However, we designate this peptide concentration with the more general term LD99.9 which can be applied to the specified conditions of the experiments performed here.

[2] = tested on: Bacillus subtilis ATCC6633; assay: Bactericidal assay (LD99.9), B. subtilis; type: cell-based; details: 10 mM phosphate buffer pH 7.0 with 1% TSB, 2 h, 37°C
Method: as §1, §2

[3] = tested on: Staphylococcus aureus 42D; assay: Bactericidal assay (LD99.9), S. aureus in 25% human serum; type: cell-based; details: unit not given (Table 3 uses µM)
Method: In order to be able to make a direct comparison with our serum stability measurements, a few peptides were selected to be tested for antimicrobial activity in 25% human serum (Table 4). […] All LD99.9 values are higher compared to the initial assays in 10 mM sodium phosphate buffer. Contributing factors to this general loss in activity could be the increased ionic concentration, interactions with serum components such as albumin or other proteins, and peptide degradation. Both hexamers with unprotected termini, Lfc1 and Com1, are no longer active while the cyclized short peptides remained fairly antimicrobial. In human serum, Lfc5 and Lfc6 are equally anti-staphylococcal. This reflects a greater loss of activity for Lfc6, but also coincides with the lower serum stability that this peptide has compared to Lfc5 (Fig. 2C). The activities of the cyclized Com peptides were all lowered equally with a 16-fold increase in LD99.9 values compared to activities in serum-excluded media and this agrees with their similar stability profiles (Fig. 2D).
as §1, §2

[4] = tested on: Staphylococcus aureus 42D; assay: Bactericidal assay (LD99.9), S. aureus; type: cell-based; details: 10 mM phosphate buffer pH 7.0 with 1% TSB, 2 h, 37°C
Method: as §1, §2

[5] = in vitro; details: 25% human male serum; for intact peptide after 2 h: 37°C; for half-life at 5 µM / remaining at 6.5 h, 5 µM / remaining at 24 h, 5 µM: male, human
Method: To investigate the effects of the modifications on proteolytic susceptibility, the disappearance of the intact peptides incubated in diluted human serum at 37°C was followed by RP-HPLC. […] Incubations were normally done for 9 h and, in some cases, longer.
Peptide stabilities were assayed in diluted serum as previously described. 25% human male serum was centrifuged at 13,000 rpm for 10 min to remove lipids and the supernatant was collected and incubated at 37°C for at least 15 min. The assay was initiated upon the addition of the test peptide to the serum for a final peptide concentration of 5 µM. 200 µL aliquots of the incubations were taken for the following time points: 0, 30, 75, 120, 240, 390 and 540 min. The aliquots were mixed with 40 µL of 15% trichloroacetic acid (TCA) and incubated at 4°C for at least 15 min to precipitate serum proteins. In the case of Com5 and Com6, 5 µL of 1 M NaOH was supplemented to the TCA to prevent peptide precipitation. The supernatant was collected for each sample after centrifugation at 13,000 rpm for 10 min and stored at −20°C. These assays were performed in triplicate.
Reverse phase high performance liquid chromatography (RP-HPLC) analysis was performed with an AKTA Purifier from Amersham Biosciences (Westborough, MA) using an uRPC C2/C18 ST 4.6/100 column from Pharmacia Biotech (SanJose, CA) of the following dimensions: bed length 100 mm, i.d. 4.6 mm, 120Å. Individually thawed samples were injected through a 100 µL loop, after which a linear gradient was run from 100% solution A (0.05% trifluoroacetic acid (TFA) in filtered water) to 100% solution B (0.045% TFA in 90% acetonitrile) with a flow rate at 0.5 mL/min. The relative concentrations of the remaining soluble peptides were analyzed by the integration of the absorbance at 215 nm as a function of retention time using the Analysis module of the Unicorn software package.

[6] = parameters: method as in PMID 15853943; details: ITC; cited from earlier work
[7] = molecular target: human serum albumin (HSA) (Homo sapiens, UniProt P02768); assay: biochemical
Method: The potential for interactions between various peptides and bovine and human serum albumin (BSA and HSA) were studied by microcalorimetry.
ITC experiments were performed at 25°C on a Microcal VP-ITC microcalorimeter with data analysis performed with the Microcal Origin software. The sample cell contained 0.1 mM of either BSA or HSA dissolved in 20 mM HEPES, 100 mM NaCl, pH 7.9. The syringe was loaded with 2 mM test peptide in the same buffer, and each titration point resulted from 5 µL injections following an initial 2 µL injection. Separate control experiments were also performed to account for heats of dilution/mixing.

[8] = 25% human male serum; details: 37°C, up to 540 min

Chain of human serum albumin (HSA) (P02768 25-609): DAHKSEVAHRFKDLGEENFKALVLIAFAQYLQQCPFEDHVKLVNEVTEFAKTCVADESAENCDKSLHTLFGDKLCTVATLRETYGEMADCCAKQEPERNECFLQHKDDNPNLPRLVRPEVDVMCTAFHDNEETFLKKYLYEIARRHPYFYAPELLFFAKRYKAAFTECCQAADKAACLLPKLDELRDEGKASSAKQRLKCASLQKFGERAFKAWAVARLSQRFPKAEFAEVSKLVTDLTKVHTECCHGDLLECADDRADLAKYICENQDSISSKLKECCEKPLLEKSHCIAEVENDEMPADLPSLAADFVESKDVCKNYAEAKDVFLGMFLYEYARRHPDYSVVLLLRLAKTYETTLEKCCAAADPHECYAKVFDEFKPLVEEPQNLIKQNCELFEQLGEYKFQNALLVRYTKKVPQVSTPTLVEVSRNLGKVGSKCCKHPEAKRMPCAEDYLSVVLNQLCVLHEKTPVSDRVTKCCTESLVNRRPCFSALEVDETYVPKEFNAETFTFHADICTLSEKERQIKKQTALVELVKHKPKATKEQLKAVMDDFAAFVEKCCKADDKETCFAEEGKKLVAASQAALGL

Row | Compound | 99.9% Lethal Dose Concentration (LD99.9) E. coli [1] [µM] | 99.9% Lethal Dose Concentration (LD99.9) B. subtilis [2] [µM] | LD99.9 anti-S. aureus in 25% human serum [3] | 99.9% Lethal Dose Concentration (LD99.9) S. aureus [4] [µM] | half-life at 5 µM [5] [h] | fragment found [8] | other results
1 | N=C(N)NCCC[C@H](NC(=O)[C@H](Cc1c[nH]c2ccccc12)NC(=O)[C@H](Cc1c[nH]c2ccccc12)NC(=O)[C@H](CCCNC(=N)N)NC(=O)[C@@H](N)CCCNC(=N)N)C(=O)N[C@@H](Cc1ccccc1)C(=O)O [Com1, RRWWRF] (H-RRWWRF-OH) | 60 | 1.9 | >120 | 7.5 | < 0.5 |  | intact peptide after 2 h [5]: completely gone
2 | CC(=O)N[C@@H](CCCNC(=N)N)C(=O)N[C@@H](CCCNC(=N)N)C(=O)N[C@@H](Cc1c[nH]c2ccccc12)C(=O)N[C@@H](Cc1c[nH]c2ccccc12)C(=O)N[C@@H](CCCNC(=N)N)C(=O)N[C@@H](Cc1ccccc1)C(=O)O [Com3, CH3CO-RRWWRF] (Ac-RRWWRF-OH) | 120 | 7.5 |  | 30 | ~1 |  | intact peptide after 2 h [5]: almost fully degraded
3 | CC(=O)N[C@@H](CCCNC(=N)N)C(=O)N[C@@H](CCCNC(=N)N)C(=O)N[C@@H](Cc1c[nH]c2ccccc12)C(=O)N[C@@H](Cc1c[nH]c2ccccc12)C(=O)N[C@@H](CCCNC(=N)N)C(=O)N[C@@H](Cc1ccccc1)C(N)=O [Com4, CH3CO-RRWWRF-NH2] (Ac-RRWWRF-NH2) | 7.5 | 0.9 |  | 7.5 | ~1.5 |  | affinity for negatively charged membranes [6]: micromolar affinity
4 | N=C(N)NCCC[C@@H]1NC(=O)[C@H](CCCNC(=N)N)NC(=O)[C@H](Cc2ccccc2)NC(=O)[C@H](CCCNC(=N)N)NC(=O)[C@H](Cc2c[nH]c3ccccc23)NC(=O)[C@H](Cc2c[nH]c3ccccc23)NC1=O [Com5, -RRWWRF-] (cyclo(RRWWRF)) | 30 | ≤0.45 | 30 | 7.5 |  |  | remaining at 6.5 h, 5 µM [5]: > 70%; remaining at 24 h, 5 µM [5]: ~50%
5 | N=C(N)NCCC[C@@H]1NC(=O)[C@H](Cc2c[nH]c3ccccc23)NC(=O)[C@H](Cc2c[nH]c3ccccc23)NC(=O)[C@H](CCCNC(=N)N)NC(=O)[C@H](CCCNC(=N)N)NC(=O)[C@@H](N)CSSC[C@@H](C(N)=O)NC(=O)[C@H](Cc2ccccc2)NC1=O [Com6, CRRWWRFC-NH2] (H-CRRWWRFC-NH2; disulfide 1-8) | 3.8 | 0.9 | 15 | 0.9 |  |  | remaining at 6.5 h, 5 µM [5]: ~50%
6 | N=C(N)NCCC[C@H](NC(=O)[C@H](Cc1c[nH]c2ccccc12)NC(=O)[C@H](CCC(N)=O)NC(=O)[C@H](Cc1c[nH]c2ccccc12)NC(=O)[C@H](CCCNC(=N)N)NC(=O)[C@@H](N)CCCNC(=N)N)C(=O)O [Lfc1, RRWQWR] (H-RRWQWR-OH) | 60 | 7.5 | >120 | 30 | < 0.5 |  | intact peptide after 2 h [5]: completely gone
7 | CC(=O)N[C@@H](CCCNC(=N)N)C(=O)N[C@@H](CCCNC(=N)N)C(=O)N[C@@H](Cc1c[nH]c2ccccc12)C(=O)N[C@@H](CCC(N)=O)C(=O)N[C@@H](Cc1c[nH]c2ccccc12)C(=O)N[C@@H](CCCNC(=N)N)C(=O)O [Lfc3, CH3CO-RRWQWR] (Ac-RRWQWR-OH) | 120 | 60 |  | >120 | ~1 |  | intact peptide after 2 h [5]: almost fully degraded
8 | CC(=O)N[C@@H](CCCNC(=N)N)C(=O)N[C@@H](CCCNC(=N)N)C(=O)N[C@@H](Cc1c[nH]c2ccccc12)C(=O)N[C@@H](CCC(N)=O)C(=O)N[C@@H](Cc1c[nH]c2ccccc12)C(=O)N[C@@H](CCCNC(=N)N)C(N)=O [Lfc4, CH3CO-RRWQWR-NH2] (Ac-RRWQWR-NH2) | 15 | 3.8 |  | 60 | ~1.5 |  | 
9 | N=C(N)NCCC[C@@H]1NC(=O)[C@H](CCCNC(=N)N)NC(=O)[C@H](Cc2c[nH]c3ccccc23)NC(=O)[C@H](CCC(N)=O)NC(=O)[C@H](Cc2c[nH]c3ccccc23)NC(=O)[C@H](CCCNC(=N)N)NC1=O [Lfc5, -RRWQWR-] (cyclo(RRWQWR)) | 7.5 | 1.9 | 60 | 7.5 |  |  | remaining at 6.5 h, 5 µM [5]: > 70%; remaining at 24 h, 5 µM [5]: ~50%
10 | N=C(N)NCCC[C@@H]1NC(=O)[C@H](Cc2c[nH]c3ccccc23)NC(=O)[C@H](CCC(N)=O)NC(=O)[C@H](Cc2c[nH]c3ccccc23)NC(=O)[C@H](CCCNC(=N)N)NC(=O)[C@H](CCCNC(=N)N)NC(=O)[C@@H](N)CSSC[C@@H](C(N)=O)NC1=O [Lfc6, CRRWQWRC-NH2] (H-CRRWQWRC-NH2; disulfide 1-8) |  |  | 60 |  |  |  | 
11 | CSCC[C@@H]1NC(=O)[C@H](CCCNC(=N)N)NC(=O)[C@H](Cc2c[nH]c3ccccc23)NC(=O)[C@H](CCC(N)=O)NC(=O)[C@H](Cc2c[nH]c3ccccc23)NC(=O)[C@H](CCCNC(=N)N)NC(=O)[C@H](CCCNC(=N)N)NC(=O)CNC(=O)[C@H](CC(C)C)NC(=O)[C@H](CCCCN)NC(=O)[C@H](CCCCN)NC1=O [Lfc8, -RRWQWRMKKLG-] (cyclo(RRWQWRMKKLG)) | 3.8 | ≤0.45 |  | 15 |  |  | Kd [7]: 150 µM
12 | -RRWQWR- (cyclo(RRWQWR); SMILES N=C(N)NCCC[C@@H]1NC(=O)[C@H](CCCNC(=N)N)NC(=O)[C@H](Cc2c[nH]c3ccccc23)NC(=O)[C@H](CCC(N)=O)NC(=O)[C@H](Cc2c[nH]c3ccccc23)NC(=O)[C@H](CCCNC(=N)N)NC1=O) |  |  |  |  |  | Single Cut, 75 min | 
13 | -RRWQWRMKKLG- (cyclo(RRWQWRMKKLG); SMILES CSCC[C@@H]1NC(=O)[C@H](CCCNC(=N)N)NC(=O)[C@H](Cc2c[nH]c3ccccc23)NC(=O)[C@H](CCC(N)=O)NC(=O)[C@H](Cc2c[nH]c3ccccc23)NC(=O)[C@H](CCCNC(=N)N)NC(=O)[C@H](CCCNC(=N)N)NC(=O)CNC(=O)[C@H](CC(C)C)NC(=O)[C@H](CCCCN)NC(=O)[C@H](CCCCN)NC1=O) |  |  |  |  |  | Single Cut, 75 min | 
14 | Ac-RRWQWR-NH2 |  |  |  |  |  | CH3CO-RRWQ, 75 min; also recorded: CH3CO-RRW, 75 min | 
15 | Ac-RRWQWR-OH |  |  |  |  |  | CH3CO-RRWQ, 75 min; also recorded: CH3CO-RRW, 75 min | 
16 | Ac-RRWWRF-NH2 |  |  |  |  |  | CH3CO-RRWW, 75 min; also recorded: CH3CO-RRW, 75 min | 
17 | RRWQWRMKKLG |  |  |  |  |  | RWQWRM, 75 min; also recorded: WQWRM, 75 min | 
